IC50 data for 39 compounds are collected here from patent US8883766B2, “Ion channel modulators and methods of use” (Vertex Pharmaceuticals Incorporated, priority 2007, dated 2014).

One may read the IC50 as the concentration at which inhibition is half-maximal.

Molecules are shown by their SMILES. Like-named read-outs stand apart in the source and are kept apart here.

Test [1] deals with T1, NaV1.3 (Homo sapiens, UniProt Q9NY46).
T1 construct: expressed in transfected cells
Briefly: VIPR optical membrane potential assay with electrical stimulation, HEK293 cells stably expressing NaV1.3. The class given is cell-based. The conditions noted are these: compound activity for the NaV1.3 receptors. As for the experimental part:
Compounds of the invention are useful as antagonists of voltage-gated sodium ion channels. Antagonist properties of test compounds were assessed as follows. Cells expressing the NaV of interest were placed into microtiter plates. After an incubation period, the cells were stained with fluorescent dyes sensitive to the transmembrane potential. The test compounds were added to the microtiter plate. The cells were stimulated with either chemical or electrical means to evoke a NaV dependent membrane potential change from unblocked channels, which was detected and measured with trans-membrane potential-sensitive dyes. Antagonists were detected as a decreased membrane potential response to the stimulus. The optical membrane potential assay utilized voltage-sensitive FRET sensors described by Gonzalez and Tsien (See, Gonzalez, J. E. and R. Y. Tsien (1995) “Voltage sensing by fluorescence resonance energy transfer in single cells” Biophys J 69(4): 1272-80, and Gonzalez, J. E. and R. Y. Tsien (1997) “Improved indicators of cell membrane potential that use fluorescence resonance energy transfer” Chem Biol 4(4): 269-77) in combination with instrumentation for measuring fluorescence changes such as the Voltage/Ion Probe Reader (VIPR®) (See, Gonzalez, J. E., K. Oades, et al. (1999) “Cell-based assays and instrumentation for screening ion-channel targets” Drug Discov Today 4(9): 431-439).
The following is an example of how NaV1.3 inhibition activity is measured using the optical membrane potential method #2. Other subtypes are performed in an analogous mode in a cell line expressing the NaV of interest.
HEK293 cells stably expressing NaV1.3 are plated into 96-well microtiter plates. After an appropriate incubation period, the cells are stained with the voltage sensitive dyes CC2-DMPE/DiSBAC2(3) as follows.
2×CC2-DMPE=20 μM CC2-DMPE: 10 mM CC2-DMPE is vortexed with an equivalent volume of 10% pluronic, followed by vortexing in required amount of HBSS containing 10 mM HEPES. Each cell plate will require 5 mL of 2×CC2-DMPE. 50 μL of 2×CC2-DMPE is added to wells containing washed cells, resulting in a 10 μM final staining concentration. The cells are stained for 30 minutes in the dark at RT.
2×DISBAC2(3) with ABSC1=6 μM DISBAC2(3) and 1 mM ABSC1: The required amount of 10 mM DISBAC2(3) is added to a 50 ml conical tube and mixed with 1 μL 10% pluronic for each mL of solution to be made and vortexed together. Then HBSS/HEPES is added to make up 2× solution. Finally, the ABSC1 is added.
The 2×DiSBAC2(3) solution can be used to solvate compound plates. Note that compound plates are made at 2× drug concentration. Wash stained plate again, leaving residual volume of 50 μL. Add 50 μL/well of the 2×DiSBAC2(3) w/ ABSC1. Stain for 30 minutes in the dark at RT.
The electrical stimulation instrument and methods of use are described in ION Channel Assay Methods PCT/US01/21652, herein incorporated by reference. The instrument comprises a microtiter plate handler, an optical system for exciting the coumarin dye while simultaneously recording the coumarin and oxonol emissions, a waveform generator, a current- or voltage-controlled amplifier, and a device for inserting electrodes in well. Under integrated computer control, this instrument passes user-programmed electrical stimulus protocols to cells within the wells of the microtiter plate.
Use the current-controlled amplifier to deliver stimulation wave pulses for 3 s. Two seconds of pre-stimulus recording are performed to obtain the un-stimulated intensities. Five seconds of post-stimulation recording are performed to examine the relaxation to the resting state.
Data are analyzed and reported as normalized ratios of background-subtracted emission intensities measured in the 460 nm and 580 nm channels. Background intensities are then subtracted from each assay channel. […]

Test [2] addresses T1, NaV1.3. The conditions noted are these: read-out: TTX IC50; cited from earlier work.

T1 sequence (Q9NY46 whole entry): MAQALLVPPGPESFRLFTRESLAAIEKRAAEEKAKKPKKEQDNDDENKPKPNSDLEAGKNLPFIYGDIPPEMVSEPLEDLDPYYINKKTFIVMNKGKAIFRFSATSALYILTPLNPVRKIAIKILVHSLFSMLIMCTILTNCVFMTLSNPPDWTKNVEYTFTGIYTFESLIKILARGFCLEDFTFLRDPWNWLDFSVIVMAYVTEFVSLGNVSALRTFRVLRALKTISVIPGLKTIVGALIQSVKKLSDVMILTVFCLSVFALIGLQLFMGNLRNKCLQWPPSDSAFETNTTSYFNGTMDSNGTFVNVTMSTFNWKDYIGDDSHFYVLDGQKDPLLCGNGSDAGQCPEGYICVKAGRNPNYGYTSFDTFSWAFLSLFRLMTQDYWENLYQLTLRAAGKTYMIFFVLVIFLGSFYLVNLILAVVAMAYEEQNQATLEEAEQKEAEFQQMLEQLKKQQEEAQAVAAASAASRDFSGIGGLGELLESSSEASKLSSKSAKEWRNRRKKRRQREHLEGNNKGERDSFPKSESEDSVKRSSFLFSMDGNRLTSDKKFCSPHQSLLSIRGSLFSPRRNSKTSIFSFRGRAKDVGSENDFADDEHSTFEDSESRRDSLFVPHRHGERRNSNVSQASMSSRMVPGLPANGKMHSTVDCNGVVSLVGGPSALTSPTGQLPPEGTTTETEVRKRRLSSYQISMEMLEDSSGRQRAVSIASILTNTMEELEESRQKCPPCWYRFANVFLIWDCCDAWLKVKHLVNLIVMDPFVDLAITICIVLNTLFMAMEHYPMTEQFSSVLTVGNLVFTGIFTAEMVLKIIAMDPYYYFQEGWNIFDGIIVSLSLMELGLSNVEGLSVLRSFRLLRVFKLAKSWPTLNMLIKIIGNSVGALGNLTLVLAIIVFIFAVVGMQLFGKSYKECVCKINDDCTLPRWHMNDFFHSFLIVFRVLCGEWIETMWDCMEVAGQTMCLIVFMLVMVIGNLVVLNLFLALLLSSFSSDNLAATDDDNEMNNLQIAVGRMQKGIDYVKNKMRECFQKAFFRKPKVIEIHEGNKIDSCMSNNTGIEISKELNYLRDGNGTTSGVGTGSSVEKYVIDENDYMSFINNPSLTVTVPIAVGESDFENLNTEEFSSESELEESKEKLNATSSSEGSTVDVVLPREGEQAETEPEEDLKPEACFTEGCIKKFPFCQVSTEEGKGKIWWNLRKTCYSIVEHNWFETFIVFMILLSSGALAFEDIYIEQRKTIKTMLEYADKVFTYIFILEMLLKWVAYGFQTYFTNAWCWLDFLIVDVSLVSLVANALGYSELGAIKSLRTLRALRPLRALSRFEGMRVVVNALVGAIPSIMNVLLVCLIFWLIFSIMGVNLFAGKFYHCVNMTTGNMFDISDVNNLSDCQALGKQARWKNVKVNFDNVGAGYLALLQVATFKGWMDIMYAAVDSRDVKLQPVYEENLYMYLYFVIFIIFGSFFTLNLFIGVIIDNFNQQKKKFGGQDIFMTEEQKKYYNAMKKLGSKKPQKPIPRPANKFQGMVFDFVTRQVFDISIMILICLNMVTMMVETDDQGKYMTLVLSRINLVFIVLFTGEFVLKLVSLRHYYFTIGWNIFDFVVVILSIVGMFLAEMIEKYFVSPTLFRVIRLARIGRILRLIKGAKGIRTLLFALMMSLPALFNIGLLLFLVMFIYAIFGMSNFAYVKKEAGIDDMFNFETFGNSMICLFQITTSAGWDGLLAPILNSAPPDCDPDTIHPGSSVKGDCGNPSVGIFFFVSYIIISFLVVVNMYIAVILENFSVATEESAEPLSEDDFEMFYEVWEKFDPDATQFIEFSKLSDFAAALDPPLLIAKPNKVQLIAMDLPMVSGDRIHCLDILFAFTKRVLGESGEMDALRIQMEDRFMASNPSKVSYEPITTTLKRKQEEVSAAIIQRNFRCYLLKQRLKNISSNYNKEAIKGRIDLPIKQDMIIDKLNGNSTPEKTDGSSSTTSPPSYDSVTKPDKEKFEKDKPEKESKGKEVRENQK

In the case of `COc1ccccc1C(=O)NS(=O)(=O)c1ccc(NC(=O)COc2ccnc3c(C(F)(F)F)cccc23)cc1` [Compound 49], the IC50 at NaV1.3 [1] was more than 5 µM. On the same count and under the same terms, the result for `COC(=O)NS(=O)(=O)c1ccc(N2CCN(C(=O)[C@@H](C)N3CCCc4cc(Cl)ccc43)CC2)cc1` [Compound 50] reads more than 5 µM; that for `COC(=O)NS(=O)(=O)c1ccc(NC(=O)CCn2ccc3cc(Cl)ccc32)cc1` [Compound 51], more than 5 µM.

In the case of `CCOC(=O)NS(=O)(=O)c1ccc(N2CCN(C(=O)[C@@H](C)N3CCCc4cc(Cl)ccc43)CC2)cc1` [Compound 52], the IC50 at NaV1.3 [1] is more than 5 µM. With `COC(=O)NS(=O)(=O)c1ccc(N2CC[C@H](N3CCCc4cc(Cl)ccc43)C2=O)cc1` [Compound 53, (S)-methyl 4-(3-(6-chloro-3,4-dihydroquinolin-1(2H)-yl)-2-oxopyrrolidin-1-yl)phenylsulfonylcarbamate], the half-inhibitory concentration (IC50) at NaV1.3 [1] was more than 5 µM.

With `C[C@H](C(=O)Nc1ccc(S(=O)(=O)NC(=O)NC(C)(C)C)cc1)n1ccc2c(F)cccc21` [Compound 54], on NaV1.3 [1], the IC50 is more than 5 µM. The same measure, in the same setting: the figure for `COC(=O)NS(=O)(=O)c1ccc(NC(=O)[C@@H](C)N2CCCc3cc(F)ccc32)cc1` [Compound 55] is more than 5 µM. Still for that read-out and setting: the figure for `COC(=O)NS(=O)(=O)c1ccc(NC(=O)Cc2ccccc2)cc1` [Compound 56] is more than 5 µM. The same measure, in the same setting: the result for `C[C@H](C(=O)Nc1ccc(S(=O)(=O)NC(=O)N2CCN(C)CC2)cc1)n1ccc2c(F)cccc21` [Compound 57] reads more than 5 µM. Consider `COC(=O)NS(=O)(=O)c1ccc(NC(=O)C(C)n2ccc3c(F)cccc32)cc1` (stereo not drawn) [Compound 59], for which the IC50 at NaV1.3 [1] is less than 2 µM.

For `COC(=O)NS(=O)(=O)c1ccc(NC(=O)COc2ccnc3c(C(F)(F)F)cccc23)cc1` [Compound 60], at NaV1.3 [1], the IC50 is more than 5 µM.

With `COC(=O)NS(=O)(=O)c1ccc(N2CCN(C(=O)[C@@H](C)N3CCCc4cc(F)ccc43)CC2)cc1` [Compound 61, (R)-methyl 4-(4-(2-(6-fluoro-3,4-dihydroquinolin-1(2H)-yl)propanoyl)piperazin-1-yl)phenylsulfonylcarbamate], on NaV1.3 [1], the IC50 is more than 5 µM. The same measure, in the same setting: the figure for `COC(=O)NS(=O)(=O)c1ccc(NC(=O)[C@@H](C)N2CCCc3cccc(Cl)c32)cc1` [Compound 62] is more than 5 µM. Still for that read-out and setting: the figure for `C[C@H](C(=O)Nc1ccc(S(=O)(=O)NC(N)=O)cc1)n1ccc2c(F)cccc21` [Compound 63] is 2 to 5 µM; for `COC(=O)NS(=O)(=O)c1ccc(NC(=O)COc2ccc(Cl)c(Cl)c2)cc1` [Compound 64] it is more than 5 µM; for `COC(=O)NS(=O)(=O)c1ccc(NC(=O)[C@H](C)Oc2cccc(Cl)c2Cl)cc1` [Compound 65] it is more than 5 µM. `Cc1cc(C(=O)NS(=O)(=O)c2ccc(NC(=O)[C@@H](C)n3ccc4c(F)cccc43)cc2)c(C)o1` [Compound 66, (R)—N-(4-(2-(4-fluoro-1H indol-1-yl)propanamido)phenylsulfonyl)-2,5-dimethylfuran-3-carboxamide]: the IC50 on NaV1.3 [1] was more than 5 µM.

As for `COC(=O)NS(=O)(=O)c1ccc(NC(=O)[C@H](C)N2CCCc3cc(F)ccc32)cc1` [Compound 67], the IC50 at NaV1.3 [1] was more than 5 µM. On the same count and under the same terms, the result for `COC(=O)NS(=O)(=O)c1ccc(NC(=O)[C@H](C)n2ccc3cccc(F)c32)cc1` [Compound 68] reads more than 5 µM; that for `COC(=O)NS(=O)(=O)c1ccc(NC(=O)Cn2ccc3cccc(F)c32)cc1` [Compound 69], more than 5 µM.

As to `COC(=O)NS(=O)(=O)c1ccc(NC(=O)Cn2ccc3ccc(Cl)cc32)cc1` [Compound 70], the IC50 at NaV1.3 [1] was more than 5 µM.

In the case of `CCC(=O)NS(=O)(=O)c1ccc(NC(=O)COc2ccnc3c(C(F)(F)F)cccc23)cc1` [Compound 71], the half-inhibitory concentration (IC50) on NaV1.3 [1] was more than 5 µM. Consider `COC(=O)NS(=O)(=O)c1ccc(NC(=O)[C@@H](CO)N2CCCc3cc(Cl)ccc32)cc1` [Compound 73], for which the IC50 at NaV1.3 [1] is more than 5 µM. Same read-out and setting: the result for `C[C@H](C(=O)Nc1ccc(S(=O)(=O)NC(=O)c2ccccc2)cc1)n1ccc2c(F)cccc21` [Compound 74, (R)—N-(4-(2-(4-fluoro-1H indol-1-yl)propanamido)phenylsulfonyl)benzamide] reads more than 5 µM; that for `COC(=O)NS(=O)(=O)c1ccc(NC(=O)[C@H](C)N2CCCc3cc(Cl)ccc32)cc1` [Compound 75], more than 5 µM; that for `CCC#CCOC(=O)NS(=O)(=O)c1ccc(NC(=O)[C@@H](C)n2ccc3c(F)cccc32)cc1` [Compound 76], more than 5 µM. Same read-out and setting: the figure for `COC(=O)NS(=O)(=O)c1ccc(NC(=O)[C@H](CC(C)C)n2ccc3c(F)cccc32)cc1` [Compound 77] is more than 5 µM. Same read-out and setting: the result for `COC(=O)NS(=O)(=O)c1ccc(NC(=O)[C@@H](C)Oc2ccc(Cl)cc2C)cc1` [Compound 78] reads more than 5 µM; that for `CCCCNC(=O)NS(=O)(=O)c1ccc(NC(=O)[C@@H](C)n2ccc3c(F)cccc32)cc1` [Compound 79], more than 5 µM. Take `COC(=O)NS(=O)(=O)c1ccc(NC(=O)[C@H](C)n2ccc3ccc(Cl)cc32)cc1` [Compound 80]: the IC50 on NaV1.3 [1] is more than 5 µM. Still for that read-out and setting: the result for `COC(=O)NS(=O)(=O)c1ccc(NC(=O)c2cc3c(F)cc(Cl)cc3[nH]2)cc1` [Compound 81] reads more than 5 µM; that for `CC(=O)NS(=O)(=O)c1ccc(NC(=O)[C@@H](C)n2ccc3c(F)cccc32)cc1` [Compound 82], more than 5 µM. Still for that read-out and setting: the result for `COC(=O)NS(=O)(=O)c1ccc(NC(=O)Cn2cc(C)c3cc(Cl)ccc32)cc1` [Compound 83] reads more than 5 µM; that for `COC(=O)NS(=O)(=O)c1ccc(NC(=O)[C@H](C)N2CCCc3ccccc32)cc1` [Compound 84], more than 5 µM. On the same count and under the same terms, the result for `COC(=O)NS(=O)(=O)c1ccc(NC(=O)C(C)(C)n2ccc3c(F)cccc32)cc1` [Compound 85] reads more than 5 µM; that for `COC(=O)NS(=O)(=O)c1ccc(NC(=O)[C@@H](CC(C)C)N2CCCc3cc(Cl)ccc32)cc1` [Compound 86], 2 to 5 µM. On to `COC(=O)NS(=O)(=O)c1ccc(NC(=O)[C@@H](C)n2ccc3ccc(C(F)(F)F)cc32)cc1` [Compound 87, (R)-methyl 4-(2-(6-(trifluoromethyl)-1H-indol-1-yl)propanamido)phenylsulfonylcarbamate], for which the IC50 at NaV1.3 [1] was less than 2 µM. As to `COC(=O)NS(=O)(=O)c1ccc(NC(=O)c2ccc(OC)cc2)cc1` [Compound 88], the IC50 on NaV1.3 [1] was more than 5 µM. `NC1=N[C@H](O)[C@H]2[C@H]3O[C@]4(O)O[C@@H]([C@@H](O)[C@@]2(N1)[C@@H]4O)[C@]3(O)CO` [TTX, tetrodotoxin]: on NaV1.3 [2], the IC50 is 0.015 µM.
